# ChEMBL document CHEMBL1201862, “PubChem BioAssay data set” (2004)
#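 A five-concentration, 48-hour dose response in 96-well plates underlies each endpoint, interpolated linearly between surrounding concentrations. At the GI50, growth is halved.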 Calls of active or inactive are those of the source. Rule as the data show it: active = GI50 up to about 1.1 µM and inactive = higher.
# How the values were obtained:
# Test in all cases: DTP human tumour cell line panel, 48 h
# [1] = tested on: CAKI-1
# [2] = tested on: COLO 205
# [3] = tested on: MOLT-4
# [4] = tested on: MDA-N
# [5] = tested on: SF-295
# [6] = tested on: SF-268
# [7] = tested on: LOX IMVI
# [8] = tested on: U-251
# [9] = tested on: NCI-H226
# [10] = tested on: TK-10
# [11] = tested on: Malme-3M
# [12] = tested on: NCI-H522
# [13] = tested on: NCI-H23
# [14] = tested on: MDA-MB-435
# [15] = tested on: SF-539
# [16] = tested on: ACHN
# [17] = tested on: SR
# [18] = tested on: OVCAR-5
# [19] = tested on: UACC-257
# [20] = tested on: HOP-92
Compound,GI50 [1],GI50 [2],GI50 [3],GI50 [4],GI50 [5],GI50 [6],GI50 [7],GI50 [8],GI50 [9],GI50 [10],GI50 [11],GI50 [12],GI50 [13],GI50 [14],GI50 [15],GI50 [16],GI50 [17],GI50 [18],GI50 [19],GI50 [20]
O=C(c1cscc1CCc1ccccc1)c1cscc1CCc1ccccc1,> 100 µM (inactive),> 100 µM (inactive),> 100 µM (inactive),> 100 µM (inactive),> 100 µM (inactive),> 100 µM (inactive),> 100 µM (inactive),> 100 µM (inactive),> 100 µM (inactive),> 100 µM (inactive),> 100 µM (inactive),> 100 µM (inactive),> 100 µM (inactive),> 100 µM (inactive),> 100 µM (inactive),> 100 µM (inactive),80 µM (inactive),> 100 µM (inactive),> 100 µM (inactive),
CCOC(=O)COc1cc(-c2ccccc2)nc2cc(F)ccc12,> 100 µM (inactive),> 100 µM (inactive),> 100 µM (inactive),> 100 µM (inactive),> 100 µM (inactive),> 100 µM (inactive),> 100 µM (inactive),> 100 µM (inactive),> 100 µM (inactive),> 100 µM (inactive),> 100 µM (inactive),,> 100 µM (inactive),> 100 µM (inactive),39.7 µM (inactive),,> 100 µM (inactive),> 100 µM (inactive),> 100 µM (inactive),52 µM (inactive)
CO/N=C1/C(n2[nH]c(=O)n(-c3ccccc3)c2=O)C2C=CC1n1c(=O)n(-c3ccccc3)c(=O)n12 (configuration not stated),> 100 µM (inactive),> 100 µM (inactive),> 100 µM (inactive),> 100 µM (inactive),,> 100 µM (inactive),> 100 µM (inactive),> 100 µM (inactive),> 100 µM (inactive),> 100 µM (inactive),> 100 µM (inactive),> 100 µM (inactive),> 100 µM (inactive),> 100 µM (inactive),> 100 µM (inactive),,> 100 µM (inactive),> 100 µM (inactive),> 100 µM (inactive),
Cc1ccc(-n2c(O)c(C#N)c3[nH]nc(N)c3c2=O)cc1,> 100 µM (inactive),> 100 µM (inactive),> 100 µM (inactive),> 100 µM (inactive),,> 100 µM (inactive),> 100 µM (inactive),> 100 µM (inactive),> 100 µM (inactive),> 100 µM (inactive),> 100 µM (inactive),> 100 µM (inactive),> 100 µM (inactive),> 100 µM (inactive),> 100 µM (inactive),,> 100 µM (inactive),> 100 µM (inactive),> 100 µM (inactive),
O=S(=O)(O)c1cc(S(=O)(=O)O)c2c(/N=N/c3ccc(/N=N/c4ccccc4)cc3)c(O)ccc2c1,> 100 µM (inactive),> 100 µM (inactive),> 100 µM (inactive),> 100 µM (inactive),> 100 µM (inactive),> 100 µM (inactive),,> 100 µM (inactive),> 100 µM (inactive),> 100 µM (inactive),> 100 µM (inactive),> 100 µM (inactive),> 100 µM (inactive),> 100 µM (inactive),> 100 µM (inactive),> 100 µM (inactive),> 100 µM (inactive),> 100 µM (inactive),> 100 µM (inactive),> 100 µM (inactive)
CC1(C)N=C(/C=N/O)C(C)(C)N1O,,> 100 µM (inactive),> 100 µM (inactive),> 100 µM (inactive),> 100 µM (inactive),> 100 µM (inactive),> 100 µM (inactive),> 100 µM (inactive),> 100 µM (inactive),> 100 µM (inactive),> 100 µM (inactive),> 100 µM (inactive),> 100 µM (inactive),> 100 µM (inactive),> 100 µM (inactive),> 100 µM (inactive),> 100 µM (inactive),> 100 µM (inactive),,> 100 µM (inactive)
Cc1cn(CC(=S)NCCc2c[nH]c3ccccc23)c(=O)[nH]c1=O,,> 100 µM (inactive),12.8 µM (inactive),48 µM (inactive),,> 100 µM (inactive),> 100 µM (inactive),> 100 µM (inactive),33.5 µM (inactive),,69.5 µM (inactive),,59.3 µM (inactive),74.5 µM (inactive),> 100 µM (inactive),69.3 µM (inactive),28.1 µM (inactive),33 µM (inactive),,> 100 µM (inactive)
CC(/C=C/c1ccc([N+](=O)[O-])o1)=N/N1CC(CN2CCOCC2)OC1=O (configuration not stated),19.4 µM (inactive),16.3 µM (inactive),22.9 µM (inactive),18.6 µM (inactive),86.1 µM (inactive),17.7 µM (inactive),24.9 µM (inactive),28.5 µM (inactive),21.4 µM (inactive),45.1 µM (inactive),14.7 µM (inactive),,20.7 µM (inactive),18.7 µM (inactive),22.9 µM (inactive),16.6 µM (inactive),15.6 µM (inactive),47.3 µM (inactive),17.5 µM (inactive),13.6 µM (inactive)
COc1cccc(C2SC(=N)Nc3c2c(C)nn3C(=O)c2ccccc2O)c1 (configuration not stated),> 10 µM (inactive),> 6.4 µM (inactive),> 2.44 µM (inactive),> 2.28 µM (inactive),3.2 µM (inactive),> 4.32 µM (inactive),> 4.26 µM (inactive),> 2.65 µM (inactive),> 2.56 µM (inactive),> 2.78 µM (inactive),0.581 µM (active),> 5.41 µM (inactive),,1.76 µM (inactive),,1.77 µM (inactive),> 3.21 µM (inactive),> 6.73 µM (inactive),2.68 µM (inactive),> 2.08 µM (inactive)
CC1=NN(c2cccc(Cl)c2)C(=N/c2nc3ccccc3s2)/C1=C\c1cccs1,52.7 µM (inactive),,26.8 µM (inactive),73.8 µM (inactive),25.3 µM (inactive),33.2 µM (inactive),40.7 µM (inactive),24 µM (inactive),36.4 µM (inactive),45.7 µM (inactive),,27.9 µM (inactive),22.5 µM (inactive),55.6 µM (inactive),42 µM (inactive),39 µM (inactive),19.5 µM (inactive),> 100 µM (inactive),37.4 µM (inactive),32.4 µM (inactive)
O=S(=O)(c1ccccc1)C1(CCC2OCCO2)C=CC2(CC1)OCCO2 (configuration not stated),,> 100 µM (inactive),> 100 µM (inactive),> 100 µM (inactive),> 100 µM (inactive),> 100 µM (inactive),,> 100 µM (inactive),> 100 µM (inactive),> 100 µM (inactive),> 100 µM (inactive),,> 100 µM (inactive),> 100 µM (inactive),,> 100 µM (inactive),> 100 µM (inactive),> 100 µM (inactive),> 100 µM (inactive),> 100 µM (inactive)
Nc1ncc(C=O)c(NCC2(CO)CCC2)n1,2.25 µM (inactive),28.4 µM (inactive),30.5 µM (inactive),> 100 µM (inactive),36.8 µM (inactive),87.9 µM (inactive),32.1 µM (inactive),35.6 µM (inactive),27.7 µM (inactive),15.4 µM (inactive),77.4 µM (inactive),35.6 µM (inactive),33.5 µM (inactive),44.9 µM (inactive),39.7 µM (inactive),,18 µM (inactive),44.8 µM (inactive),> 100 µM (inactive),14.5 µM (inactive)
O=C1/C(=C/c2ccc(O)cc2)NC(=S)N1CN1CCCCC1,,21 µM (inactive),62.7 µM (inactive),> 100 µM (inactive),89.7 µM (inactive),89.1 µM (inactive),40.1 µM (inactive),49.8 µM (inactive),78.3 µM (inactive),94 µM (inactive),> 100 µM (inactive),55.3 µM (inactive),> 100 µM (inactive),70.3 µM (inactive),,45.7 µM (inactive),49.2 µM (inactive),> 100 µM (inactive),,54.6 µM (inactive)
N=C(N)NCC1CCCCCCN1 (configuration not stated),> 100 µM (inactive),> 100 µM (inactive),> 100 µM (inactive),> 100 µM (inactive),> 100 µM (inactive),> 100 µM (inactive),,> 100 µM (inactive),> 100 µM (inactive),> 100 µM (inactive),> 100 µM (inactive),> 100 µM (inactive),> 100 µM (inactive),> 100 µM (inactive),> 100 µM (inactive),> 100 µM (inactive),> 100 µM (inactive),> 100 µM (inactive),> 100 µM (inactive),> 100 µM (inactive)
CC1(C)CC(=O)c2c(nc3ccc4ccccc4c3c2-c2ccc(NC(=O)CCCCCCCCC(=O)Nc3ccc(-c4c5c(nc6ccc7ccccc7c46)CC(C)(C)CC5=O)cc3)cc2)C1,> 100 µM (inactive),> 100 µM (inactive),> 100 µM (inactive),> 100 µM (inactive),> 100 µM (inactive),> 100 µM (inactive),> 100 µM (inactive),> 100 µM (inactive),> 100 µM (inactive),> 100 µM (inactive),,,> 100 µM (inactive),> 100 µM (inactive),> 100 µM (inactive),> 100 µM (inactive),> 100 µM (inactive),> 100 µM (inactive),> 100 µM (inactive),> 100 µM (inactive)
